We go through two molecules from PMC6385123, “Design, Synthesis, Anticancer Evaluation and Molecular Modeling of Novel Estrogen Derivatives” (Molecules, 2019).

Data set [1] deals with MCF-7 cells. Briefly: In vitro cytotoxic activity, MTT assay, MCF-7. It counts as cell-based, human. The note with it: for IC50: Homo sapiens, MCF7, MTT assay, MCF-7 cell line, read-out: IC50 (Mean ± SEM) MCF-7. The procedure: (§1) MCF-7 (human breast cancer) cells, obtained from Sigma-Aldrich Chemie GmbH, Taufkirchen, Germany, were propagated in RPMI-1640 supplemented with 10% heat inactivated FBS, 2 mM L-glutamine, and 1% standard antibiotic solution. Cells were incubated in a 5% CO2 humidified incubator at 37 °C and passaged bi-weekly. The in vitro anti-proliferative activity of the newly synthesized derivatives was assayed using standard MTT technique. Results were expressed as IC50. Experiments were repeated at least in triplicate, to obtain good reproducibility between replicate wells with standard errors below 10%. Furthermore, the cytotoxic effects of the prepared derivatives were evaluated against normal nonmalignant cells, non-tumorigenic MCF-10A, in order to find out if the synthesized derivatives have toxicity against normal cells. Additionally, results were compared with reference compounds (cisplatin and milaplatin) as positive controls.
(Tetrazolium assays rely on reduction of a dye to a coloured formazan, in cell work by metabolically active cells.)

Data set [2] deals with MCF-10A cells. Briefly: In vitro cytotoxicity against normal non-tumorigenic cells, MTT assay. In kind it is cell-based. The conditions noted are these: Homo sapiens, normal non-tumorigenic MCF-10A cells, read-out: IC50 (Mean ± SEM) MCF-10A. The procedure: as §1
Data set [3] has as its system MCF-7 xenografts. Briefly: In vivo breast cancer mouse xenograft model. The arrangement: species or system nude mice. On the procedure: The breast cancer xenograft model protocol was approved by the Institutional Animal Use and Care Committee of the University of Alabama at Birmingham (50-01-05-08B). Female athymic pathogen-free nude mice (nu/nu, 4–6 weeks) were used. Firstly, MCF-7 xenografts were initiated by implanting pellets slowly releasing estrogen for two months (1.7mg 17β-estradiol/pellet) subcutaneously in the female nude mice. After 24 h, confluent MCF-7 cells were harvested, washed two times with serum-free medium, re-suspended and injected subcutaneously (s.c.) (5 × 10^6 cells, total volume 0.2 mL) into the left inguinal area of the mice. Caliper measurement was used to measure tumor growth in two perpendicular diameters of the implant after 48 h, and its volume was determined. Mice grafted with MCF-7 were divided into different groups (7–10 mice/group). Untreated mice received the solvent only. Treated groups received different prepared derivatives as previously described.

The target in data set [4] is T1, p53 ubiquitination (GST-tagged HDM2) (Homo sapiens, UniProt Q00987).
T1 construct: GS4b-MDM2 RING beads were prepared as above and were used in place of the full-length MDM2; made in house; host or cells: Escherichia coli BL21
T1 sequence (Q00987 whole entry): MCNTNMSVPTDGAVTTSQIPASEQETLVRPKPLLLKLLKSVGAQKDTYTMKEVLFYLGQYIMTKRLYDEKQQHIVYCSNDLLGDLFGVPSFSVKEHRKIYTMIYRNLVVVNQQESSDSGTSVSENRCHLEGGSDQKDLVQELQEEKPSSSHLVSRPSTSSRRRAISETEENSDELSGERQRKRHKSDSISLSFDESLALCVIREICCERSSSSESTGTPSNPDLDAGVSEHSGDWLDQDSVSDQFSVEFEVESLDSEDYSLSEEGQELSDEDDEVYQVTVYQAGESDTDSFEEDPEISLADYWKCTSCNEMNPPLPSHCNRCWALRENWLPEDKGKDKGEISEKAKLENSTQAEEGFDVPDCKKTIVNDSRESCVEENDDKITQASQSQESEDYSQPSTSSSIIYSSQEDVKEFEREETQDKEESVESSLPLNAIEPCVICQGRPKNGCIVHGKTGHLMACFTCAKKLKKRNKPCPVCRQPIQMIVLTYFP
Briefly: In vitro p53 ubiquitination assay. It counts as biochemical. The conditions noted are these: for IC50: GST-tagged HDM2, p53, ubiquitin, E1 and E2 (UbcH5B), read-out: IC50 (Mean ± SEM) In Vitro p53 Ubiquitination. On the procedure:
Different prepared derivatives were evaluated for their inhibitory potential against p53 ubiquitination. The method is based on incubating different compounds with GST-tagged HDM2, immobilized on glutathione-Sepharose, p53, ubiquitin, E1 and E2 (UbcH5B) ligases. The buffer contained ATP as detailed by Gomha and Abdelaziz. The reaction products were then resolved by SDSPAGE and p53 ubiquitination and were quantified by Western blotting using an anti-p53 antibody.
Briefly, rGSH-S-transferase-tagged MDM2 (GST-MDM2) was expressed in Escherichia coli BL21 cells using 1 mM isopropyl-thio-b-D-galactoside for 3 h. The enzyme was then purified on glutathione-sepharose beads (Amersham). Beads were washed with Tris (pH 7.5). The reaction contained fluorescent ubiquitin (5 µg; Invitrogen), 50 ng mammalian E1 (Enzo), 200 ng human rUbcH5B E2 (Enzo), 200 ng His-p53 (Enzo) and buffer [50 mM Tris pH 8,2 mM dithiothreitol, 5 mM MgCl2, 2 mM adenosine triphosphate (ATP)]. The MPD-compound or control mixture was dose-titrated onto GS4b-MDM2 beads. Incubation at 37 °C was followed by shaking (1200 rpm, 1 h). The reaction was terminated with 3× sodium dodecyl sulfate sample buffer. Finally, unbound fluorescent ubiquitin was drained and the total fluorescent ubiquitin signal was measured using a plate reader (Safire).
The procedure was performed similar to the aforementioned protocol except that 5 µg unlabeled ubiquitin (Enzo) was used. Following incubation, resolving of reaction products was performed using sodium dodecyl sulfate PGE. Analysis was done by western blotting using anti-p53 DO-1. For the MDM2 RING auto-ubiquitination assay, GS4b-MDM2 RING beads were prepared as above and were used in place of the full-length MDM2.

Data set [5] deals with p53 ubiquitination. Briefly: In vivo ubiquitination of p53 (transfected cells). In kind it is cell-based. The conditions noted are these: for IC50: cells transfected with p53, MDM2, HIS-ubiquitin, exposed 6 h, read-out: IC50 (Mean ± SEM) In Vivo p53 Ubiquitination. On the procedure: In vivo ubiquitination of p53 was assayed according to [38] Cells were grown for 24 h (50% confluency) before transfection of 1 µg p53, 4 µg MDM2 and 1 µg HIS-ubiquitin with Gene Juice reagent. Grown for another 20 h, cells were exposed to prepared derivatives or controls for 6 h and MG132 for 4 h, then washed and collected in PBS, where 5% of the solution was kept as an input. The remaining pelleted cells (95% after centrifugation) were lysed in 700 µL of ubiquitin buffer A (6 M guanidinium HCl, 300 mM NaCl, 50 mM phosphate pH 8.0, 100 µg/mL N-ethylmaleimide), and sonicated for 5 min at 20% amplitude. Lysates were incubated overnight with Invitrogen Dynabeads His-Tag matrix and washed once with ubiquitin buffers A, B, C and phosphate buffered saline (ubiquitin buffer B: Mix ubiquitin buffer A and ubiquitin buffer C 1:1; ubiquitin buffer C: 300 mM NaCl, 50 mM phosphate pH 8.0, 100 µg/mL N-ethylmaleimide). The washed lysates were resolved by 8% sodium dodecyl sulfate–polyacrylamide gel electrophoresis, followed by immunoblotting with a p53 (DO-1) antibody.

Data set [6] has as its target EGFR (Homo sapiens, UniProt P00533). Briefly: EGFR kinase inhibition assay. The note with it: 8 μM ATP, poly(Glu,Tyr)4:1 substrate; read-out: IC50 (Mean ± SEM) EGFR. In kind it is biochemical. On the procedure:
(§2) The EGFR and VEGFR-2 kinase activities were assayed as previously described. The assay was performed in 96-well plates pre-coated with 20 μg mL^−1 poly (Glu, Tyr)4:1 (Sigma-Aldrich Chemie GmbH, Taufkirchen, Germany) as a substrate. In each well, 85 μL of an 8 μM ATP solution and 10 μL of the compound were added at varying concentrations. Experiments were repeated three times. Reactions started with 5 μL of different kinases and incubation for 1 h at 37 °C. Plates were 3X-washed with PBS/0.1% Tween 20. Accordingly, 100 μL of anti-phosphotyrosine (PY99; 1:500 dilutions) antibody was added, and plates were incubated for another hour at room temperature. Plates were then 3X-washed, and addition of goat anti-mouse IgG horseradish peroxidase (100 μL; 1:2000 dilution) diluted in T-PBS containing 5 mg mL^−1 BSA followed. Plates were further incubated at room temperature for another hour, and then 3X-washed. Finally, 100 μL (developing solution, 0.03% H2O2, 2 mg mL^−1 o-phenylenediamine/citrate buffer, 0.1 M, pH 5.5) was added and incubation continued until color development. The reaction was stopped by 100 μL of 2M H2SO4, and the absorption was measured at 492 nm using a multiwell spectrophotometer (VERSAmax™). The inhibition rate (%) was calculated using the equation:Inhibition rate (%) = [1 − (A492/A492Control)] × 100%(1)

Data set [7] deals with VEGFR-2 (Homo sapiens, UniProt P35968). Nature of the data set: VEGFR-2 kinase inhibition assay. In kind it is biochemical. The note with it: 8 μM ATP, poly(Glu,Tyr)4:1 substrate; read-out: IC50 (Mean ± SEM) VEGFR-2. The procedure: as §2
Chain of VEGFR-2 (P35968 20-1356): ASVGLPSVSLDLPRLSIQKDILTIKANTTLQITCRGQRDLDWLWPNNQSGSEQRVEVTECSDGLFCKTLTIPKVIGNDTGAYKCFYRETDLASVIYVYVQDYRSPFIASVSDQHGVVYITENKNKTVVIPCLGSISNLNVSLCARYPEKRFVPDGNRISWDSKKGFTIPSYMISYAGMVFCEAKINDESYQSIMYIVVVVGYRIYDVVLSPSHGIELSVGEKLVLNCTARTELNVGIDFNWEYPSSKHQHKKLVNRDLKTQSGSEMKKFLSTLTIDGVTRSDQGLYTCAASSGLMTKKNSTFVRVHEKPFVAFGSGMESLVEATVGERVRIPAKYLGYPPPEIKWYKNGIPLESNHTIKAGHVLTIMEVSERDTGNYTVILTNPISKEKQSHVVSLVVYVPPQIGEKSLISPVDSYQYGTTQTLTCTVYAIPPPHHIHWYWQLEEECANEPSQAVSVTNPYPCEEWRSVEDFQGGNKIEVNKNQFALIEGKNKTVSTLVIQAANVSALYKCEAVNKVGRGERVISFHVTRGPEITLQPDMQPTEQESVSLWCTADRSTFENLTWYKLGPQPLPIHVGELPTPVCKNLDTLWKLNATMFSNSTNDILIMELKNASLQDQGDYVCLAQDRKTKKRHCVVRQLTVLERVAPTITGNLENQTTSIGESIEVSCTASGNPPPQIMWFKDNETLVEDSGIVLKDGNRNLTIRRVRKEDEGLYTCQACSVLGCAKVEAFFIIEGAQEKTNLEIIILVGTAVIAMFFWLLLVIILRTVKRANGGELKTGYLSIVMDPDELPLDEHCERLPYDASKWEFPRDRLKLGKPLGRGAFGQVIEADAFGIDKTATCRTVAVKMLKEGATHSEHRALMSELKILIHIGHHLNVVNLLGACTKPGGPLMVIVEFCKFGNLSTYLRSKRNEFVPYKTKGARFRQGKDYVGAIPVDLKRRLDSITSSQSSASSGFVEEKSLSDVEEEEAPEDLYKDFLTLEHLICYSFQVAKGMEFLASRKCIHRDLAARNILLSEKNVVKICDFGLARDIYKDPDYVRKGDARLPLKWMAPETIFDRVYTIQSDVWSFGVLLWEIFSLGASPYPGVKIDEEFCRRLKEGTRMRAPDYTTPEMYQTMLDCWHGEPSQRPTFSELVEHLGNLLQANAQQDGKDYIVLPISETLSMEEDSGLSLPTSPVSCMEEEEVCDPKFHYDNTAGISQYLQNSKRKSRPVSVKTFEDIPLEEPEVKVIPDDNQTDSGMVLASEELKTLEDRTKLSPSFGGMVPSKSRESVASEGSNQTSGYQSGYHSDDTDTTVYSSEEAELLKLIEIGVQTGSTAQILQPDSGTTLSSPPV

Chain of EGFR (P00533 25-1210): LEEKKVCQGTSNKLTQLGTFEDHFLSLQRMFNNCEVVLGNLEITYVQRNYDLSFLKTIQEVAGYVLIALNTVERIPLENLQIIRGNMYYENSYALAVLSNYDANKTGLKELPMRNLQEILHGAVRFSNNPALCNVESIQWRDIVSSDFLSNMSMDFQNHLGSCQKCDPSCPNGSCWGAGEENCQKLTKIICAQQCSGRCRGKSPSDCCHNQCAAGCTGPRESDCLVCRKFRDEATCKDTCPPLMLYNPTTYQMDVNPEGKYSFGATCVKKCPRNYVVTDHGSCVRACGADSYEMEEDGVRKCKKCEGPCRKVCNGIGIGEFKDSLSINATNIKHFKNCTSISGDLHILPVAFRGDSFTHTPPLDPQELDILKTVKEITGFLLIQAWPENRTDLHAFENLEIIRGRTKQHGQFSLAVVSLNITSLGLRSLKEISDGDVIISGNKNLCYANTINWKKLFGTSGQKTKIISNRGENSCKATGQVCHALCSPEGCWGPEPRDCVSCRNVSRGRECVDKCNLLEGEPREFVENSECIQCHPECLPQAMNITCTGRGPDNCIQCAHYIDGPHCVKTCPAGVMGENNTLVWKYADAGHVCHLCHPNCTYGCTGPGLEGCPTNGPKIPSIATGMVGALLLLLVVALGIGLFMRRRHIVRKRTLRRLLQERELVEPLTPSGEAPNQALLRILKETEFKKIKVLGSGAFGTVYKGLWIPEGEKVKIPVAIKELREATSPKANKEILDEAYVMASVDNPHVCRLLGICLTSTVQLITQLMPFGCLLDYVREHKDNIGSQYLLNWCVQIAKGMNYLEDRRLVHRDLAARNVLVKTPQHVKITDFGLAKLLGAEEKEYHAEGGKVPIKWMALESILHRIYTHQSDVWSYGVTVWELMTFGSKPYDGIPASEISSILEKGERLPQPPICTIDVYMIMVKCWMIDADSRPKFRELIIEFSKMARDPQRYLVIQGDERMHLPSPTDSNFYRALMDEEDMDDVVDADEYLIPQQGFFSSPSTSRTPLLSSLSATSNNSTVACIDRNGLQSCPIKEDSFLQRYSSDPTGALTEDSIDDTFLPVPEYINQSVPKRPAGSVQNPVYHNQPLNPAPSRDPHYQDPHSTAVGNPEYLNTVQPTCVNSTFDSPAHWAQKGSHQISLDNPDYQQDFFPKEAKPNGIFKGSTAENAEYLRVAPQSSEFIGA

A word on the IC50: it is the concentration at which inhibition is half-maximal. The term melting point denotes the temperature, or range, at which the solid turns liquid. As for `CC12CCC3c4ccc(O)cc4CCC3C1CC1=C2NC(=N)NC1c1ccccc1Cl` (centres unmarked) [Compound 5a, 2′-Imino-6′-(2-chlorophenyl)-estra-1(10),2,4,16(17)-tetraien-[17,16-d]-pyrimidino-3-ol], the melting point fell in the range of 286 to 288 °C. Also, in data set [1], the IC50 was 18.38 ± 0.13 µM. Further, the “fold more toxic than the least active compound 7b towards MCF-7” value in data set [1] (ratio of IC50 values, 5a vs 7b) is 2.5 fold. The IC50 in data set [2] was 211 ± 7.53 µM. Further, the “decrease in tumor growth” value in data set [3] (after 2 days of treatment, vs control animals) is given as “about 25.36%”. The “maximal inhibition of tumor growth” value in data set [3] (after 10 days of treatment) is 91.1%. Besides, the “inhibition percentage of tumor growth” value in data set [3] (after 14 days of treatment) is given as 88.7%. The half-inhibitory concentration (IC50) in data set [4] came to 16.4 ± 0.23 µM. Further, the “fold more active than standard drug, in vitro p53 ubiquitination” value in data set [4] (vs diphenyl imidazole) turned out to be 15.8 fold. The IC50 in data set [5] came out at 220 ± 4.3 nM. Moreover, in data set [5] (vs diphenyl imidazole), the “fold more active than standard drug, in vivo p53 ubiquitination” value is listed as 8.6 fold. Besides, the IC50 in data set [6] was 86 ± 3.2 nM. Moreover, in data set [7], the IC50 amounted to 27 ± 1.2 nM.

As for `CC12CCC3c4ccc(O)cc4CCC3C1CC1C2=NN(C(N)=S)C1c1ccc(Cl)cc1` (centres unmarked) [Compound 8b, 1-Thiocarbamoyl-1′H-(2′H)-5′-(4-chlorophenyl)-estra-1(10),2,4-trien-[17,16-c]pyrazoline-3-ol], the melting point is 252 to 256 °C. The 50% inhibitory concentration (IC50) in data set [1] turned out to be 40.4 ± 0.95 µM. Moreover, the IC50 in data set [2] stood at 446 ± 15.4 µM. Moreover, the IC50 in data set [4] was 64.6 ± 0.78 µM. For the same molecule, in data set [5], the IC50 is 820 ± 7.8 nM. Also, the IC50 in data set [6] came to 177 ± 4.1 nM. The IC50 in data set [7] worked out at 53 ± 2.3 nM.
